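Five concentrations, 48 hours, 96-well plates. TGI is the concentration that stops growth completely.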
Assays:
Assay in all cases: DTP human tumour cell line panel, 48 h
SK-MEL-2 melanoma = test system: SK-MEL-2 melanoma
MDA-MB-231 breast = test system: MDA-MB-231 breast
MDA-MB-435 = test system: MDA-MB-435
HOP-62 NSCLC = test system: HOP-62 NSCLC
LOX IMVI melanoma = test system: LOX IMVI melanoma
SK-MEL-28 melanoma = test system: SK-MEL-28 melanoma
OVCAR-3 ovarian = test system: OVCAR-3 ovarian
UACC-62 melanoma = test system: UACC-62 melanoma
SNB-78 CNS = test system: SNB-78 CNS
DMS 273 small cell lung = test system: DMS 273 small cell lung
HOP-18 NSCLC = test system: HOP-18 NSCLC
M19-MEL melanoma = test system: M19-MEL melanoma

Structure (SMILES)	TGI (SK-MEL-2 melanoma)	TGI (MDA-MB-231 breast)	TGI (MDA-MB-435)	TGI (HOP-62 NSCLC)	TGI (LOX IMVI melanoma)	TGI (SK-MEL-28 melanoma)	TGI (OVCAR-3 ovarian)	TGI (UACC-62 melanoma)	TGI (SNB-78 CNS)	TGI (DMS 273 small cell lung)	TGI (HOP-18 NSCLC)	TGI (M19-MEL melanoma)
CCOc1ccc2c(c1)NC(=O)C(C1OC(c3ccccc3)=CC1=O)S2 (configuration not stated)	> 100 µM	60.5 µM	44.4 µM	> 100 µM	67 µM	68.8 µM	50.1 µM	35.1 µM	–	–	–	–
C[n+]1c(-c2ccc(/C=N\NC(=O)c3ccc(C(=O)N/N=C/c4ccc(-c5cn6ccsc6[n+]5C)cc4)cc3)cc2)cn2ccsc21	75.6 µM	42.1 µM	37.7 µM	35.1 µM	–	–	28.5 µM	47.1 µM	–	–	–	–
CCOc1cc(NC(C)=O)ccc1C(=O)NN1C(=O)CSC1c1ccc(O)c(OC)c1 (configuration not stated)	> 100 µM	> 100 µM	> 100 µM	> 100 µM	> 100 µM	> 100 µM	> 100 µM	> 100 µM	–	–	–	–
O=C(CCO)OCCCCCC/C=C\CCCCCC/C=C\CCCCCCCCOC(=O)CCO	31 µM	32.5 µM	45.7 µM	36.1 µM	36.6 µM	37.5 µM	41.2 µM	32.9 µM	–	–	–	–
OC1(c2ccc3ccccc3c2)c2ccc3ccccc3c2C2=NCCN21 (configuration not stated)	> 100 µM	> 100 µM	> 100 µM	47.3 µM	> 100 µM	> 100 µM	> 100 µM	> 100 µM	–	–	–	–
Cc1ccc(S(=O)(=O)NCCSS(=O)(=O)c2ccc(C)cc2)cc1	–	> 100 µM	52 µM	–	53.5 µM	76.6 µM	–	–	–	–	–	–
CCCc1ccc(OCC(=O)N/N=C/c2c(-c3ccccc3)[nH]c3ccccc23)cc1	15.3 µM	28.9 µM	8.74 µM	37.8 µM	21.6 µM	> 100 µM	95.2 µM	26.3 µM	–	–	–	–
CS(=O)(=O)OCc1c(O)c2c(c(O)c1COS(C)(=O)=O)C(=O)C=CC2=O	> 100 µM	–	–	> 100 µM	–	> 100 µM	> 100 µM	> 100 µM	> 100 µM	> 100 µM	> 100 µM	–
CCCC(=O)OCC(O)CO (configuration not stated)	> 5000 µM	–	–	> 5000 µM	> 5000 µM	> 5000 µM	–	> 5000 µM	> 5000 µM	> 5000 µM	> 5000 µM	> 5000 µM
NC(N)=N/N=C/c1ccc(O)c(C(=O)O)c1	> 100 µM	> 100 µM	> 100 µM	> 100 µM	> 100 µM	> 100 µM	> 100 µM	> 100 µM	–	–	–	–
Oc1ccc2ccccc2c1Cc1c(O)ccc2ccccc12	41.7 µM	40.9 µM	31.5 µM	41.4 µM	38.7 µM	40.7 µM	28.4 µM	29.4 µM	–	–	–	–
NC1=NS(=O)(=O)Nc2nc(-c3cccs3)[nH]c21	> 100 µM	–	–	> 100 µM	> 100 µM	> 100 µM	> 100 µM	> 100 µM	–	> 100 µM	> 100 µM	> 100 µM

From PubChem BioAssay (NCI)
